Reference: patent publication US20250319191A1, “PHARMACEUTICAL COMPOSITION COMPRISING HYALURONIC ACID COMPLEX FOR PREVENTION OR TREATMENT OF SKIN DISEASE” (AJOU UNIVERSITY INDUSTRY-ACADEMIC COOPERATION FOUNDATION, priority 2021, published 2025)

Target: recombinant TLR4 (Homo sapiens, UniProt O00206)
Assay: Interaction with TLR4 by surface plasmon resonance
Format: binding
Details: 0-800 μg/ml, 10 μl/min, 120 seconds
Excerpt: In order to immobilize a target receptor on an assay chip, the receptor was immobilized on the chip by flowing recombinant TLR4 while flowing an EDC/NHS solvent. Thereafter, ethanolamine was flowed to remove weakly immobilized or non-immobilized receptor on the chip.

Sequence of recombinant TLR4 (O00206 24-839, species assumed): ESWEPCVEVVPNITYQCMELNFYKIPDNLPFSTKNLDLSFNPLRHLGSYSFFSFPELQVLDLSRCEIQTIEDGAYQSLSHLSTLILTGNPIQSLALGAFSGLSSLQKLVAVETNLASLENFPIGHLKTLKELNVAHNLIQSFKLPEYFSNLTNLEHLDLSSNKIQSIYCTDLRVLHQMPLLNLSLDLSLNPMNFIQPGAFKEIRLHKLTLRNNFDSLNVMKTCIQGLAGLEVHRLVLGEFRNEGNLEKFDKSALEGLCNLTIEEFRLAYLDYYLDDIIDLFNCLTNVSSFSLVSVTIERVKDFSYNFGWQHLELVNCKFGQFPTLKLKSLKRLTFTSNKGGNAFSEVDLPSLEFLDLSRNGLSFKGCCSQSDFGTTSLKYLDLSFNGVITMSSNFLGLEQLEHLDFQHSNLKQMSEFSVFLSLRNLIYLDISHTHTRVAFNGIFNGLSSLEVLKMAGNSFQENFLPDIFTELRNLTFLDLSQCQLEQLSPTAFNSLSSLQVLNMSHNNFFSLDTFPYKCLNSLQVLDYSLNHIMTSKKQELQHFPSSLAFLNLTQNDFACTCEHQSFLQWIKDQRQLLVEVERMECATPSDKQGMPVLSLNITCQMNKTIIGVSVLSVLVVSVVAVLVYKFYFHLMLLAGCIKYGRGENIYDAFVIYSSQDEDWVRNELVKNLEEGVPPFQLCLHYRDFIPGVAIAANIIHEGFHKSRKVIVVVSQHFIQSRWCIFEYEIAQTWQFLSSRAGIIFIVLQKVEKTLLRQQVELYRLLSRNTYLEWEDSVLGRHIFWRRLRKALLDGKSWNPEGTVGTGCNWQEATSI

## hyaluronic acid [10 kDa free HA]
  change in response unit (RU) value: the increase in RU value identified in the HACN group was not observed
